PubChem BioAssay (NCI)
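Step 1: Grow cells in 96-well plates. Step 2: Expose to compound for 48 hours at 5 concentrations. Step 3: Interpolate endpoints linearly; if unreached, use highest concentration. The concentration for full growth arrest is given as TGI.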

Columns and labels:
Experiment in all cases: NCI-60 cell line screen, 48 h
UACC-257 melanoma = tested on: UACC-257 melanoma
SF-295 CNS = tested on: SF-295 CNS
HS 578T breast = tested on: HS 578T breast
K-562 leukemia = tested on: K-562 leukemia
NCI/ADR-RES ovarian = tested on: NCI/ADR-RES ovarian
UACC-62 melanoma = tested on: UACC-62 melanoma
U251 CNS = tested on: U251 CNS
HT29 colon = tested on: HT29 colon
COLO 205 colon = tested on: COLO 205 colon
SNB-19 CNS = tested on: SNB-19 CNS
IGROV1 ovarian = tested on: IGROV1 ovarian
KM12 colon = tested on: KM12 colon
PC-3 prostate = tested on: PC-3 prostate
OVCAR-3 ovarian = tested on: OVCAR-3 ovarian
NCI-H23 lung = tested on: NCI-H23 lung
ACHN renal = tested on: ACHN renal
OVCAR-4 ovarian = tested on: OVCAR-4 ovarian
HCT-116 colon = tested on: HCT-116 colon
DU-145 prostate = tested on: DU-145 prostate
CAKI-1 renal = tested on: CAKI-1 renal
RXF 393 renal = tested on: RXF 393 renal
MOLT-4 leukemia = tested on: MOLT-4 leukemia
SK-MEL-5 melanoma = tested on: SK-MEL-5 melanoma
CCRF-CEM leukemia = tested on: CCRF-CEM leukemia
UO-31 renal = tested on: UO-31 renal
HL-60(TB) leukemia = tested on: HL-60(TB) leukemia
BT-549 breast = tested on: BT-549 breast
OVCAR-5 ovarian = tested on: OVCAR-5 ovarian
NCI-H522 lung = tested on: NCI-H522 lung
T-47D breast = tested on: T-47D breast
RPMI-8226 leukemia = tested on: RPMI-8226 leukemia
M14 melanoma = tested on: M14 melanoma
LOX IMVI melanoma = tested on: LOX IMVI melanoma
OVCAR-8 ovarian = tested on: OVCAR-8 ovarian
MCF7 breast = tested on: MCF7 breast
HOP-62 NSCLC = tested on: HOP-62 NSCLC
MDA-MB-231 breast = tested on: MDA-MB-231 breast
TK-10 renal = tested on: TK-10 renal
SK-OV-3 ovarian = tested on: SK-OV-3 ovarian
SR leukemia = tested on: SR leukemia
HCT-15 colon = tested on: HCT-15 colon
A549 NSCLC = tested on: A549 NSCLC
NCI-H460 lung = tested on: NCI-H460 lung
SF-268 CNS = tested on: SF-268 CNS
SK-MEL-28 melanoma = tested on: SK-MEL-28 melanoma
MDA-N = tested on: MDA-N
SN12C renal = tested on: SN12C renal
MALME-3M melanoma = tested on: MALME-3M melanoma
786-0 renal = tested on: 786-0 renal
MDA-MB-435 = tested on: MDA-MB-435
SNB-75 CNS = tested on: SNB-75 CNS
HCC-2998 colon = tested on: HCC-2998 colon
SF-539 CNS = tested on: SF-539 CNS
SK-MEL-2 melanoma = tested on: SK-MEL-2 melanoma
EKVX NSCLC = tested on: EKVX NSCLC
HOP-92 NSCLC = tested on: HOP-92 NSCLC
NCI-H226 lung = tested on: NCI-H226 lung
SW-620 colon = tested on: SW-620 colon

For `Clc1ccc(C(c2ccc(Cl)cc2)c2cncnc2)cc1`, the TGI (UACC-257 melanoma) was 49.1 µM, the TGI (SF-295 CNS) was 35.6 µM and the TGI (HS 578T breast) was 39.9 µM. It also gave a TGI (K-562 leukemia) greater than 100 µM, a TGI (NCI/ADR-RES ovarian) of 44.4 µM and a TGI (UACC-62 melanoma) of 28.7 µM. It also gave a TGI (U251 CNS) of 32.1 µM, a TGI (HT29 colon) of 28.3 µM and a TGI (COLO 205 colon) of 33.2 µM. For the same molecule, the TGI (SNB-19 CNS) was 33 µM, the TGI (IGROV1 ovarian) was 33.8 µM and the TGI (KM12 colon) was 37 µM. The TGI (PC-3 prostate) was 27.3 µM, the TGI (OVCAR-3 ovarian) was 27.9 µM and the TGI (NCI-H23 lung) was 36.9 µM. For the same molecule, the TGI (ACHN renal) was 36.4 µM, the TGI (OVCAR-4 ovarian) was 29 µM and the TGI (HCT-116 colon) was 26.9 µM. For the same molecule, the TGI (DU-145 prostate) was 31.3 µM, the TGI (CAKI-1 renal) was 39.7 µM and the TGI (RXF 393 renal) was 25.2 µM. For the same molecule, the TGI (MOLT-4 leukemia) was 67.6 µM, the TGI (SK-MEL-5 melanoma) was 25.9 µM and the TGI (CCRF-CEM leukemia) was 44.8 µM. For the same molecule, the TGI (UO-31 renal) was 25.1 µM, the TGI (HL-60(TB) leukemia) was greater than 100 µM and the TGI (BT-549 breast) was 27.4 µM. It also gave a TGI (OVCAR-5 ovarian) of 29.5 µM, a TGI (NCI-H522 lung) of 33.3 µM and a TGI (T-47D breast) of 32.3 µM. For the same molecule, the TGI (RPMI-8226 leukemia) was greater than 100 µM, the TGI (M14 melanoma) was 30 µM and the TGI (LOX IMVI melanoma) was 31.2 µM. For the same molecule, the TGI (OVCAR-8 ovarian) was 42.5 µM, the TGI (MCF7 breast) was 30 µM and the TGI (HOP-62 NSCLC) was 31.3 µM. It also gave a TGI (MDA-MB-231 breast) of 34 µM, a TGI (TK-10 renal) of 30.8 µM and a TGI (SK-OV-3 ovarian) of 33.4 µM. For the same molecule, the TGI (SR leukemia) was greater than 100 µM, the TGI (HCT-15 colon) was 39.1 µM and the TGI (A549 NSCLC) was 38.5 µM. The TGI (NCI-H460 lung) was 31.4 µM, the TGI (SF-268 CNS) was 33.8 µM and the TGI (SK-MEL-28 melanoma) was 33.4 µM. It also gave a TGI (MDA-N) of 29.3 µM, a TGI (SN12C renal) of 36.6 µM and a TGI (MALME-3M melanoma) of 36.1 µM. For the same molecule, the TGI (786-0 renal) was 33 µM and the TGI (MDA-MB-435) was 28 µM.

In the case of `CN=c1oc2ccccc2cc1C(N)=O`, the TGI (UACC-257 melanoma) is reported as greater than 100 µM, the TGI (SF-295 CNS) is reported as greater than 100 µM and the TGI (HS 578T breast) is reported as greater than 100 µM. It also gave a TGI (K-562 leukemia) greater than 100 µM, a TGI (SNB-75 CNS) greater than 100 µM and a TGI (NCI/ADR-RES ovarian) greater than 100 µM. The TGI (HCC-2998 colon) was greater than 100 µM, the TGI (UACC-62 melanoma) was greater than 100 µM and the TGI (U251 CNS) was greater than 100 µM. It also gave a TGI (HT29 colon) greater than 100 µM, a TGI (COLO 205 colon) greater than 100 µM and a TGI (SF-539 CNS) greater than 100 µM. The TGI (SNB-19 CNS) was greater than 100 µM, the TGI (IGROV1 ovarian) was greater than 100 µM and the TGI (SK-MEL-2 melanoma) was greater than 100 µM. For the same molecule, the TGI (KM12 colon) was greater than 100 µM, the TGI (PC-3 prostate) was greater than 100 µM and the TGI (OVCAR-3 ovarian) was greater than 100 µM. The TGI (NCI-H23 lung) was greater than 100 µM, the TGI (ACHN renal) was greater than 100 µM and the TGI (HCT-116 colon) was greater than 100 µM. The TGI (DU-145 prostate) was greater than 100 µM, the TGI (CAKI-1 renal) was greater than 100 µM and the TGI (RXF 393 renal) was greater than 100 µM. For the same molecule, the TGI (MOLT-4 leukemia) was greater than 100 µM, the TGI (EKVX NSCLC) was greater than 100 µM and the TGI (SK-MEL-5 melanoma) was greater than 100 µM. For the same molecule, the TGI (CCRF-CEM leukemia) was greater than 100 µM, the TGI (UO-31 renal) was greater than 100 µM and the TGI (HL-60(TB) leukemia) was greater than 100 µM. The TGI (BT-549 breast) was greater than 100 µM, the TGI (NCI-H522 lung) was greater than 100 µM and the TGI (T-47D breast) was greater than 100 µM. It also gave a TGI (HOP-92 NSCLC) greater than 100 µM, a TGI (RPMI-8226 leukemia) greater than 100 µM and a TGI (M14 melanoma) greater than 100 µM. For the same molecule, the TGI (LOX IMVI melanoma) was greater than 100 µM, the TGI (OVCAR-8 ovarian) was greater than 100 µM and the TGI (MCF7 breast) was greater than 100 µM. For the same molecule, the TGI (HOP-62 NSCLC) was greater than 100 µM, the TGI (MDA-MB-231 breast) was greater than 100 µM and the TGI (TK-10 renal) was greater than 100 µM. It also gave a TGI (SK-OV-3 ovarian) greater than 100 µM, a TGI (NCI-H226 lung) greater than 100 µM and a TGI (SR leukemia) greater than 100 µM. The TGI (HCT-15 colon) was greater than 100 µM, the TGI (A549 NSCLC) was greater than 100 µM and the TGI (SW-620 colon) was greater than 100 µM. It also gave a TGI (NCI-H460 lung) greater than 100 µM, a TGI (SF-268 CNS) greater than 100 µM and a TGI (SK-MEL-28 melanoma) greater than 100 µM. The TGI (MDA-N) was greater than 100 µM, the TGI (SN12C renal) was greater than 100 µM and the TGI (786-0 renal) was greater than 100 µM. The TGI (MDA-MB-435) was greater than 100 µM.
